# Measured values published in US11129835B2, “Methods and compositions for the inhibition of PIN1” (Beth Israel Deaconess Medical Center, Inc., priority 2012, dated 2021).
# Columns and labels:
# Pin1 [1] = molecular target: T1, Pin1 (Homo sapiens, UniProt Q13526); assay: Pin1 fluorescence polarization competition assay, primary qHTS (HiFluor-488 / Alexa488 probe);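 note: Pin1 protein with fluorescent peptide probe, compound displacement read by fluorescence polarization, percent inhibition derived from corrected polarization values, concentration-response curves in 1536-well format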
# T1 sequence (Q13526 whole entry): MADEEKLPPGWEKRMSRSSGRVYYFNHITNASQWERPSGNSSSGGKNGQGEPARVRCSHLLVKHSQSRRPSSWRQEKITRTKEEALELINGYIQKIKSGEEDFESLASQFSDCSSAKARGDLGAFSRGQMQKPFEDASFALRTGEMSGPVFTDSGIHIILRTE
# Pin1 [2] = molecular target: T1, Pin1; assay: confirmatory Pin1 fluorescence polarization competition assay (Alexa488 reconfirmed); conditions: for Emax: read-out: Alexa488 Reconfirmed Efficacy;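 for all read-outs here: Pin1 competition with a HiFluor488-labelled peptide probe, read as fluorescence polarization after 10 min at room temperature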
# Method: The goal of this assay was to identify small-molecule inhibitors of Pin1 using a fluorescence polarization competition assay (FIG. 1). […] Candidate compounds were screened in a concentration-titration series (e.g., 57 μM to 0.7 nM).
# Pin1 (0.6 μM) was dispensed into black, solid 1536-well plates (32 rows by 48 columns) at 2 μL/well in Pin1 buffer (10 mM HEPES (pH 7.5), 10 mM NaCl, 0.01% Tween20, 1 mM DTT, and 1% glycerol). Next, 23 nL of compound or DMSO was delivered to each well using a pin tool (tip wash sequence: DMSO, IPA, MeOH, 3 s vacuum dry). Two μL of Pin1-1b-HiFluor488 peptide in buffer (10 mM HEPES (pH 7.5), 10 mM NaCl, 0.01% Tween20, 1 mM DTT, and 1% glycerol, 0.02 μM Pin1-1b-HiFluor488) or DMSO was then dispensed to each well using a pin tool (tip wash sequence: DMSO, IPA, MeOH, 3 s vacuum dry), and plates were incubated at room temperature for 10 min (Table 2). Each plate included controls with no candidate inhibitory compound (32 wells), with unlabeled Pin1-1c titration (3.5 mM to 0.020 mM in a 1:2 dilution series including 2 replicates per concentration; 32 wells), and without Pin1 (64 wells).
# The fluorescence polarization signal of each well was measured on a ViewLux® plate reader using a 480/20 nm excitation filter and 540/25 nm S and P emission filters with a 20 second exposure with 2× binning (Table 2). Percent inhibitory activity was determined from corrected fluorescence polarization values.
# Concentration-response curves were fitted to the signals arising from the resulting fluorescence polarization. The concentration-effect curves were then classified based on curve quality (r^2), response magnitude, and degree of measured activity. Compounds were subsequently categorized based on their curve class.
# Pin1 [3] = molecular target: T1, Pin1; assay: Pin1 fluorescence polarization competition assay with Tamra-probe (secondary); conditions: for Emax: read-out: Tamra Secondary Efficacy
# [4] = Alexa488 Primary Potency, primary qHTS
# [5] = Average HTS Potency, average over Alexa488 primary, Alexa488 reconfirmed and Tamra secondary assays
# [6] = read-out: Alexa488 Primary Efficacy
Structure (SMILES),IC50 (Pin1 [1]; [4]),IC50 (Pin1 [1]; [5]),Alexa488 Primary Curve Class (Pin1 [1]; primary qHTS),Emax (Pin1 [1]; [6]),Emax (Pin1 [1]; read-out: Average HTS Efficacy),IC50 (Pin1 [2]),Emax (Pin1 [2]),IC50 (Pin1 [3]),Emax (Pin1 [3]),Tamra Secondary Curve Class (Pin1 [3]; Tamra-probe),Alexa488 Reconfirmed Curve Class (Pin1 [2]; confirmatory retest),"Average HTS Efficacy (Pin1 [1]; average over Alexa488 primary, Alexa488 reconfirmed and Tamra secondary assays)",Alexa488 Primary Efficacy (Pin1 [1]; primary qHTS),Alexa488 Reconfirmed Efficacy (Pin1 [2]; confirmatory retest),Tamra Secondary Efficacy (Pin1 [3]; Tamra-probe)
O=C(O)c1cccc2c1NC(C(=O)O)C1CC(Sc3ccccc3[N+](=O)[O-])C(Cl)C21 (stereo not drawn) [Compound 3],–,–,–,–,–,–,–,–,–,1.2 (≤80% (class 1.2)),1.2 (≤80% (class 1.2)),71 % Inh.,80 % Inh.,61 % Inh.,72 % Inh.
O=C(O)C1Nc2c(Cl)cc(Cl)c(Cl)c2C2C=CCC12 (stereo not drawn) [Compound 5],18 µM,7 µM,1.2 (≤80% (class 1.2)),53%,63%,2 µM,75%,2 µM,61%,1.2 (≤80% (class 1.2)),1.2 (≤80% (class 1.2)),–,–,–,–
O=C(O)C1Nc2ccc(Br)cc2C2C=CCC12 (stereo not drawn) [Compound 6],22 µM,14 µM,–,42%,72%,10 µM,85%,11 µM,87%,–,–,–,–,–,–
Cc1ccc(C)c2c1NC(C(=O)O)C1CC=CC21 (stereo not drawn) [Compound 7],45 µM,29 µM,1.2 (≤80% (class 1.2)),63%,72%,–,91%,14 µM,63%,2.2 (≤80% (class 2.2)),2.2 (≤80% (class 2.2)),–,–,–,–
O=C(O)C1Nc2c(C(F)(F)F)ccc(Cl)c2C2C=CCC12 (stereo not drawn) [Compound 8],45 µM,31 µM,2.2 (≤80% (class 2.2)),67%,74%,–,103%,18 µM,52%,2.2 (≤80% (class 2.2)),2.2 (≤80% (class 2.2)),–,–,–,–
Cc1ccc(N(Cc2cc(=O)[nH]c3ccccc23)C(=O)CCl)cc1 [Compound 9],10 µM,4 µM,–,78%,95%,2 µM,111%,1.2 µM,97%,–,–,–,–,–,–
Cc1cccc(N(Cc2cc(=O)[nH]c3ccccc23)C(=O)CCl)c1 [Compound 10],22.4 µM,13.6 µM,2.2 (≤80% (class 2.2)),81.3%,82.1%,4.8 µM,82.9%,–,–,–,–,–,–,–,–
O=C1OC(/C(=C\Nc2cc(Cl)ccc2O)[N+](=O)[O-])c2ccccc21 (stereo not drawn) [Compound 12],15 µM,6 µM,1.2 (≤80% (class 1.2)),78%,88%,1.2 µM,93%,1.1 µM,92%,–,–,–,–,–,–
O=S(=O)(O)c1ccc(O)c2cc(Nc3ccccc3)ccc12 [Compound 13],9 µM,4 µM,–,89%,89%,2 µM,89%,3 µM,88%,–,–,–,–,–,–
Cc1ccc(NC(=O)CN(C)C(=O)c2cccc(-n3cccc3)c2)cc1 [Compound 25],38 µM,34 µM,2.2 (≤80% (class 2.2)),22%,47%,–,–,30 µM,73%,3.0,–,–,–,–,–
COc1cc(/C=C2\SC(=O)N(c3ccc(Cl)cc3)C2=O)cc([N+](=O)[O-])c1O [Compound 38],19 µM,13 µM,–,103%,101%,6 µM,98%,–,–,–,–,–,–,–,–
COc1ccc(NC(=O)CN(C)C(O)c2cc(-c3ccco3)nc3ccccc23)cc1 (stereo not drawn) [Compound 39],14 µM,17 µM,2.2 (≤80% (class 2.2)),28%,41%,–,–,21 µM,53%,3.0,–,–,–,–,–
O=C(O)c1[nH]c2ccccc2c1C(c1cc(Br)ccc1O)c1c(C(=O)O)[nH]c2ccccc12 [Compound 43],16 µM,20 µM,1.2 (≤80% (class 1.2)),63%,67%,–,–,24 µM,71%,3.0,–,–,–,–,–
CCOc1cc(Br)cc(C(c2c(C(=O)O)[nH]c3ccccc23)c2c(C(=O)O)[nH]c3ccccc23)c1O [Compound 45],22 µM,30 µM,–,72%,71%,–,–,38 µM,71%,3.0,–,–,–,–,–
Cn1nc(-c2ccncc2)nc2c(=O)n(C)c(=O)nc1-2 [Compound 49],50 µM,25 µM,1.2 (≤80% (class 1.2)),27%,48%,1 µM,70%,–,–,–,–,–,–,–,–

# More lines, main results first:
IC50 (Pin1 [1]; [4]),IC50 (Pin1 [1]; [5]),Alexa488 Primary Curve Class (Pin1 [1]; primary qHTS),Emax (Pin1 [1]; [6]),Emax (Pin1 [1]; read-out: Average HTS Efficacy),IC50 (Pin1 [2]),Emax (Pin1 [2]),IC50 (Pin1 [3]),Emax (Pin1 [3]),Tamra Secondary Curve Class (Pin1 [3]; Tamra-probe),Alexa488 Reconfirmed Curve Class (Pin1 [2]; confirmatory retest),Structure (SMILES),"Average HTS Efficacy (Pin1 [1]; average over Alexa488 primary, Alexa488 reconfirmed and Tamra secondary assays)",Alexa488 Primary Efficacy (Pin1 [1]; primary qHTS),Alexa488 Reconfirmed Efficacy (Pin1 [2]; confirmatory retest),Tamra Secondary Efficacy (Pin1 [3]; Tamra-probe)
6 µM,3 µM,1.2 (≤80% (class 1.2)),66%,84%,1.3 µM,90%,1.2 µM,95%,–,–,CC(=O)c1ccc2c(c1)C1C=CCC1C(C(=O)O)N2 (stereo not drawn) [Compound 1],–,–,–,–
7 µM,4 µM,–,86%,81%,2 µM,89%,3 µM,69%,1.2 (≤80% (class 1.2)),–,O=C(O)C1Nc2c(O)cc(Cl)c([N+](=O)[O-])c2C2C=CCC12 (stereo not drawn) [Compound 2],–,–,–,–
3 µM,7 µM,1.2 (≤80% (class 1.2)),23%,30%,–,–,11 µM,37%,2.2 (≤80% (class 2.2)),–,O=C(O)C1Nc2c(O)cccc2C2C=CCC12 (stereo not drawn) [Compound 4],–,–,–,–
3 µM,3 µM,1.2 (≤80% (class 1.2)),65%,83%,3 µM,93%,4 µM,91%,–,–,NS(=O)(=O)c1cc(C(=O)NC2CCSc3ccccc32)ccc1Cl (stereo not drawn) [Compound 11],–,–,–,–
1.69 µM,0.89 µM,–,89%,94%,0.08 µM,99%,–,–,–,–,O=C(c1cccs1)c1no[n+]([O-])c1C(=O)c1cccs1 [Compound 28],–,–,–,–
1 µM,1 µM,–,53%,63%,1 µM,73%,–,–,–,–,CCn1nc(-c2ccccc2C)nc2c(=O)n(C)c(=O)nc1-2 [Compound 48],–,–,–,–
1 µM,4 µM,–,93%,95%,7 µM,98%,–,–,–,–,CC(=O)Nc1cc(=O)c2[nH]o[nH]c=2c1=O [Compound 50],–,–,–,–
